# Patent publication EP0319030A1, “Aminopropanol derivatives of 1,4:3,6-dianhydro-hexitol nitrates, processes for their preparation and their use as medicaments” (Heinrich Mack Nachf., priority 1987, dated 1989)
# Marks after values point to notes of the source that are not given here.
# What was measured:
# Format in all cases: in vivo
# conscious beagle dogs = assay: Systolic blood pressure and heart rate following peroral administration; settings: 6.0 mg/kg peroral, mean ± SEM
# Excerpt: (§1) In particular, they have a pronounced cardiovascular action. On isolated strips of veins from dogs, they act against the K⁺-induced contraction in a lower concentration than on aorta strips. On isolated hearts from guinea pigs, they increase coronary flow as a function of the dose. On anesthetized rats, they prevent lypressin coronary spasm as a function of the dose and significiantly increase the survival rate of rats following acute cardiac infarction. On normotensive conscious dogs, they lower the systolic blood pressure for a period of 6-8 hours after oral administration. On artifically respirated anesthetized, thoraxotomized dogs, they reduce the mean arterial pressure, the left ventricular systolic pressure, the left ventricular end diastolic pressure and the pressure in the Arteria pulmonalis and reduce the peripheral vascular resistance. In contrast to the known organic nitrate esters, they also lead to a long-lasting reduction in the systolic blood pressure of spontaneously hypertensive rats. Such an action profile is not known for any of the substances of similar structure which have already been described.
# rats = assay: Survival rate after acute coronary ligature, method of I. Lepran et al.; settings: 30.0 mg/kg orally 5 minutes before ligature
# Excerpt: as §1
# anesthetized rat = assay: Lypressin-induced T-wave increase in the ECG (lypressin coronary spasm), method of M. Leitold et al.
# Excerpt: as §1
# Mice = assay: Peroral tolerance in mice; settings: mouse, in vivo
# Excerpt: Set forth below is data obtained on the compounds of Examples 17, 19 and 20 that illustrates the pharmacological action of the compounds of the present invention.
# anesthetized dogs = assay: Cardiovascular actions following intra-venous administration, opened thorax and artificial respiration; settings: opened thorax, artificial respiration
# Excerpt: as §1
compound,measurement,setting,value
"COc1ccccc1N1CCN(CC(O)CO[C@H]2CO[C@H]3[C@@H]2OC[C@H]3O[N+](=O)[O-])CC1 (stereo partly shown) [Example 17, 2-O-<3-[4-(2-Methoxyphenyl)-piperazinyl]-2-hydroxypropyl>-isosorbide-5-nitrate]","HR (heart rate), Action of substance after 1 hours",conscious beagle dogs,101 ± 17 Bts/M
same,"HR (heart rate), Action of substance after 2 hours",conscious beagle dogs,110 ± 16 Bts/M
same,"HR (heart rate), Action of substance after 4 hours",conscious beagle dogs,89 ± 8 Bts/M
same,"HR (heart rate), Action of substance after 6 hours",conscious beagle dogs,89 ± 5 Bts/M
same,"HR (heart rate), Action of substance after 8 hours",conscious beagle dogs,85 ± 7 Bts/M
same,"SBP (systolic blood pressure), Action of substance after 1 hours",conscious beagle dogs,91 ± 6 mmHg
same,"SBP (systolic blood pressure), Action of substance after 2 hours",conscious beagle dogs,89 ± 4 mmHg
same,"SBP (systolic blood pressure), Action of substance after 4 hours",conscious beagle dogs,97 ± 5 mmHg
same,"SBP (systolic blood pressure), Action of substance after 6 hours",conscious beagle dogs,101 ± 5 mmHg
same,"SBP (systolic blood pressure), Action of substance after 8 hours",conscious beagle dogs,115 ± 7 mmHg
same,"Number of rats surviving after an acute coronary ligature, 24 hours",rats; control 21/80,17/20**
same,"Number of rats surviving after an acute coronary ligature, 7 days",rats; control 21/80,17/20**
same,"Number of rats surviving after an acute coronary ligature, 60 minutes",rats; control 23/80,17/20**
same,ED50,"anesthetized rat; Rattus norvegicus, po, 0.5 h, perorally 30 minutes before the lypressin injection, dose column in mg/kg",89.5 mg/kg
same,Duration of action at the ED50 dose,anesthetized rat; perorally at various times before the lypressin injection,2 h
same,"tolerance (clinical symptoms, fatal consequences)",Mice,without clinical symptoms and without fatal consequences
same,"CO, Action of substance",anesthetized dogs; 30 µg/kg intra-venous,0.93 ± 0.07 l/M
same,"CO, Change",anesthetized dogs; 30 µg/kg intra-venous,0.07 ± 0.04 l/M
same,"CO, Duration of action",anesthetized dogs; 30 µg/kg intra-venous,6 ± 3 min
same,"HR (heart rate), Action of substance",anesthetized dogs; 30 µg/kg intra-venous,219 ± 18 Bts/M
same,"HR (heart rate), Change",anesthetized dogs; 30 µg/kg intra-venous,21 ± 18 Bts/M
same,"HR (heart rate), Duration of action",anesthetized dogs; 30 µg/kg intra-venous,6 ± 2 min
same,"LVEDP (left ventricular enddiastolic pressure), Action of substance",anesthetized dogs; 30 µg/kg intra-venous,6.2 ± 0.7 mmHg
same,"LVEDP (left ventricular enddiastolic pressure), Change",anesthetized dogs; 30 µg/kg intra-venous,0.2 ± 0.03 mmHg
same,"LVEDP (left ventricular enddiastolic pressure), Duration of action",anesthetized dogs; 30 µg/kg intra-venous,2.2 ± 1.3 min
same,"LVSP (left ventricular systolic blood pressure), Action of substance",anesthetized dogs; 30 µg/kg intra-venous,131 ± 9 mmHg
same,"LVSP (left ventricular systolic blood pressure), Change",anesthetized dogs; 30 µg/kg intra-venous,19 ± 6 mmHg
same,"LVSP (left ventricular systolic blood pressure), Duration of action",anesthetized dogs; 30 µg/kg intra-venous,5 ± 3 min
same,"MAP (mean arterial blood pressure), Action of substance",anesthetized dogs; 30 µg/kg intra-venous,83 ± 1 mmHg
same,"MAP (mean arterial blood pressure), Change",anesthetized dogs; 30 µg/kg intra-venous,23 ± 2 mmHg
same,"MAP (mean arterial blood pressure), Duration of action",anesthetized dogs; 30 µg/kg intra-venous,14 ± 1 min
same,"PAP, Action of substance",anesthetized dogs; 30 µg/kg intra-venous,17.0 ± 4 mmHg
same,"PAP, Change",anesthetized dogs; 30 µg/kg intra-venous,1.3 ± 0.5 mmHg
same,"PAP, Duration of action",anesthetized dogs; 30 µg/kg intra-venous,2 ± 0.3 min
same,"SV, Action of substance",anesthetized dogs; 30 µg/kg intra-venous,52 ± 0.4 mL/s
same,"SV, Change",anesthetized dogs; 30 µg/kg intra-venous,0.4 ± 0.2 mL/s
same,"SV, Duration of action",anesthetized dogs; 30 µg/kg intra-venous,2 ± 0.2 min
same,"TPR (total peripheral vascular resistance), Action of substance",anesthetized dogs; 30 µg/kg intra-venous,65 ± 12 mmHg/ml
same,"TPR (total peripheral vascular resistance), Change",anesthetized dogs; 30 µg/kg intra-venous,23 ± 4 mmHg/ml
same,"TPR (total peripheral vascular resistance), Duration of action",anesthetized dogs; 30 µg/kg intra-venous,> 14 min
same,"dp/dtmax (maximum rate of increase in the left ventricular pressure), Action of substance",anesthetized dogs; 30 µg/kg intra-venous,3144 ± 166 mmHg/s
same,"dp/dtmax (maximum rate of increase in the left ventricular pressure), Change",anesthetized dogs; 30 µg/kg intra-venous,424 ± 95 mmHg/s
same,"dp/dtmax (maximum rate of increase in the left ventricular pressure), Duration of action",anesthetized dogs; 30 µg/kg intra-venous,8 ± 3 min
same,"CO, Action of substance",anesthetized dogs; 300 µg/kg intra-venous,0.684 ± 0.137 l/M
same,"CO, Change",anesthetized dogs; 300 µg/kg intra-venous,0.127 ± 0.046 l/M
same,"CO, Duration of action",anesthetized dogs; 300 µg/kg intra-venous,73 ± 40 min
same,"HR (heart rate), Action of substance",anesthetized dogs; 300 µg/kg intra-venous,206 ± 15 Bts/M
same,"HR (heart rate), Change",anesthetized dogs; 300 µg/kg intra-venous,15 ± 13 Bts/M
same,"HR (heart rate), Duration of action",anesthetized dogs; 300 µg/kg intra-venous,2.4 ± 1 min
same,"LVEDP (left ventricular enddiastolic pressure), Action of substance",anesthetized dogs; 300 µg/kg intra-venous,5.5 ± 0.8 mmHg
same,"LVEDP (left ventricular enddiastolic pressure), Change",anesthetized dogs; 300 µg/kg intra-venous,0.3 ± 0.1 mmHg
same,"LVEDP (left ventricular enddiastolic pressure), Duration of action",anesthetized dogs; 300 µg/kg intra-venous,5.6 ± 2 min
same,"LVSP (left ventricular systolic blood pressure), Action of substance",anesthetized dogs; 300 µg/kg intra-venous,115 ± 4 mmHg
same,"LVSP (left ventricular systolic blood pressure), Change",anesthetized dogs; 300 µg/kg intra-venous,39 ± 5 mmHg
same,"LVSP (left ventricular systolic blood pressure), Duration of action",anesthetized dogs; 300 µg/kg intra-venous,151 ± 24 min
same,"MAP (mean arterial blood pressure), Action of substance",anesthetized dogs; 300 µg/kg intra-venous,49 ± 3 mmHg
same,"MAP (mean arterial blood pressure), Change",anesthetized dogs; 300 µg/kg intra-venous,55 ± 6 mmHg
same,"MAP (mean arterial blood pressure), Duration of action",anesthetized dogs; 300 µg/kg intra-venous,157 ± 39 min
same,"PAP, Action of substance",anesthetized dogs; 300 µg/kg intra-venous,18.2 ± 5 mmHg
same,"PAP, Change",anesthetized dogs; 300 µg/kg intra-venous,1.5 ± 0.5 mmHg
same,"PAP, Duration of action",anesthetized dogs; 300 µg/kg intra-venous,1.4 ± 0.1 min
same,"SV, Action of substance",anesthetized dogs; 300 µg/kg intra-venous,3.7 ± 0.4 mL/s
same,"SV, Change",anesthetized dogs; 300 µg/kg intra-venous,0.7 ± 0.3 mL/s
same,"SV, Duration of action",anesthetized dogs; 300 µg/kg intra-venous,74 ± 43 min
same,"TPR (total peripheral vascular resistance), Action of substance",anesthetized dogs; 300 µg/kg intra-venous,42 ± 2 mmHg/ml
same,"TPR (total peripheral vascular resistance), Change",anesthetized dogs; 300 µg/kg intra-venous,42 ± 6 mmHg/ml
same,"TPR (total peripheral vascular resistance), Duration of action",anesthetized dogs; 300 µg/kg intra-venous,163 ± 16 min
same,"dp/dtmax (maximum rate of increase in the left ventricular pressure), Action of substance",anesthetized dogs; 300 µg/kg intra-venous,2133 ± 310 mmHg/s
same,"dp/dtmax (maximum rate of increase in the left ventricular pressure), Change",anesthetized dogs; 300 µg/kg intra-venous,1547 ± 423 mmHg/s
same,"dp/dtmax (maximum rate of increase in the left ventricular pressure), Duration of action",anesthetized dogs; 300 µg/kg intra-venous,> 197 min
same,"CO, Action of substance",anesthetized dogs; 3000 µg/kg intra-venous,0.405 ± 0.055 l/M
same,"CO, Change",anesthetized dogs; 3000 µg/kg intra-venous,0.450 ± 0.025 l/M
same,"CO, Duration of action",anesthetized dogs; 3000 µg/kg intra-venous,> 75 min
same,"HR (heart rate), Action of substance",anesthetized dogs; 3000 µg/kg intra-venous,182 ± 17 Bts/M
same,"HR (heart rate), Change",anesthetized dogs; 3000 µg/kg intra-venous,20 ± 17 Bts/M
same,"HR (heart rate), Duration of action",anesthetized dogs; 3000 µg/kg intra-venous,1.4 ± 0.3 min
same,"LVEDP (left ventricular enddiastolic pressure), Action of substance",anesthetized dogs; 3000 µg/kg intra-venous,5.6 ± 1 mmHg
same,"LVEDP (left ventricular enddiastolic pressure), Change",anesthetized dogs; 3000 µg/kg intra-venous,0.6 ± 0.3 mmHg
same,"LVEDP (left ventricular enddiastolic pressure), Duration of action",anesthetized dogs; 3000 µg/kg intra-venous,> 73 min
same,"LVSP (left ventricular systolic blood pressure), Action of substance",anesthetized dogs; 3000 µg/kg intra-venous,113 ± 3 mmHg
same,"LVSP (left ventricular systolic blood pressure), Change",anesthetized dogs; 3000 µg/kg intra-venous,48 ± 3 mmHg
same,"LVSP (left ventricular systolic blood pressure), Duration of action",anesthetized dogs; 3000 µg/kg intra-venous,> 74 min
same,"MAP (mean arterial blood pressure), Action of substance",anesthetized dogs; 3000 µg/kg intra-venous,33 ± 2 mmHg
same,"MAP (mean arterial blood pressure), Change",anesthetized dogs; 3000 µg/kg intra-venous,67 ± 4 mmHg
same,"MAP (mean arterial blood pressure), Duration of action",anesthetized dogs; 3000 µg/kg intra-venous,> 114 min
same,"PAP, Action of substance",anesthetized dogs; 3000 µg/kg intra-venous,18.2 ± 7 mmHg
same,"PAP, Change",anesthetized dogs; 3000 µg/kg intra-venous,2.3 ± 0.8 mmHg
same,"PAP, Duration of action",anesthetized dogs; 3000 µg/kg intra-venous,2 ± 0.6 min
same,"SV, Action of substance",anesthetized dogs; 3000 µg/kg intra-venous,3.0 ± 0.6 mL/s
same,"SV, Change",anesthetized dogs; 3000 µg/kg intra-venous,2.6 ± 0.4 mL/s
same,"SV, Duration of action",anesthetized dogs; 3000 µg/kg intra-venous,> 75 min
same,"TPR (total peripheral vascular resistance), Action of substance",anesthetized dogs; 3000 µg/kg intra-venous,44 ± 10 mmHg/ml
same,"TPR (total peripheral vascular resistance), Change",anesthetized dogs; 3000 µg/kg intra-venous,74 ± 6 mmHg/ml
same,"TPR (total peripheral vascular resistance), Duration of action",anesthetized dogs; 3000 µg/kg intra-venous,24 ± 6 min
same,"dp/dtmax (maximum rate of increase in the left ventricular pressure), Action of substance",anesthetized dogs; 3000 µg/kg intra-venous,2019 ± 123 mmHg/s
same,"dp/dtmax (maximum rate of increase in the left ventricular pressure), Change",anesthetized dogs; 3000 µg/kg intra-venous,1828 ± 238 mmHg/s
same,"dp/dtmax (maximum rate of increase in the left ventricular pressure), Duration of action",anesthetized dogs; 3000 µg/kg intra-venous,> 75 min
